{"source": "PubChem BioAssay (NCI)", "test_in_all_cases": "DTP human tumour cell line panel, 48 h", "key": {"[1]": {"test_system": "786-0 renal"}, "[2]": {"test_system": "A498 renal"}, "[3]": {"test_system": "A549 NSCLC"}, "[4]": {"test_system": "ACHN renal"}, "[5]": {"test_system": "BT-549 breast"}, "[6]": {"test_system": "CAKI-1 renal"}, "[7]": {"test_system": "CCRF-CEM leukemia"}, "[8]": {"test_system": "COLO 205 colon"}, "[9]": {"test_system": "DU-145 prostate"}, "[10]": {"test_system": "EKVX NSCLC"}, "[11]": {"test_system": "HCT-116 colon"}, "[12]": {"test_system": "HCT-15 colon"}, "[13]": {"test_system": "HL-60(TB) leukemia"}, "[14]": {"test_system": "HOP-62 NSCLC"}, "[15]": {"test_system": "HOP-92 NSCLC"}, "[16]": {"test_system": "HS 578T breast"}, "[17]": {"test_system": "HT29 colon"}, "[18]": {"test_system": "IGROV1 ovarian"}, "[19]": {"test_system": "KM12 colon"}, "[20]": {"test_system": "LOX IMVI melanoma"}, "[21]": {"test_system": "M14 melanoma"}, "[22]": {"test_system": "MCF7 breast"}, "[23]": {"test_system": "MDA-MB-231 breast"}, "[24]": {"test_system": "MDA-MB-435"}, "[25]": {"test_system": "MOLT-4 leukemia"}, "[26]": {"test_system": "NCI-H226 lung"}, "[27]": {"test_system": "NCI-H23 lung"}, "[28]": {"test_system": "NCI-H460 lung"}, "[29]": {"test_system": "NCI/ADR-RES ovarian"}, "[30]": {"test_system": "OVCAR-3 ovarian"}, "[31]": {"test_system": "OVCAR-5 ovarian"}, "[32]": {"test_system": "OVCAR-8 ovarian"}, "[33]": {"test_system": "PC-3 prostate"}, "[34]": {"test_system": "RPMI-8226 leukemia"}, "[35]": {"test_system": "SF-268 CNS"}, "[36]": {"test_system": "SF-295 CNS"}, "[37]": {"test_system": "SF-539 CNS"}, "[38]": {"test_system": "SK-MEL-28 melanoma"}, "[39]": {"test_system": "SK-MEL-5 melanoma"}, "[40]": {"test_system": "SK-OV-3 ovarian"}, "[41]": {"test_system": "SN12C renal"}, "[42]": {"test_system": "SNB-19 CNS"}, "[43]": {"test_system": "SNB-75 CNS"}, "[44]": {"test_system": "SR leukemia"}, "[45]": {"test_system": "SW-620 colon"}, "[46]": {"test_system": "T-47D breast"}, "[47]": {"test_system": "U251 CNS"}, "[48]": {"test_system": "UACC-257 melanoma"}, "[49]": {"test_system": "UO-31 renal"}}, "note": "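Cultured in 96-well plates, cells were exposed to test compound for 48 hours across five concentrations. TGI is the concentration that stops growth completely.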", "data": [{"smiles": "ClCCN1CCOC1=C1C=CC=C1", "values": [{"measurement": "TGI", "setting": "[1]", "result": "> 100", "unit": "µM"}, {"measurement": "TGI", "setting": "[2]", "result": "> 100", "unit": "µM"}, {"measurement": "TGI", "setting": "[3]", "result": "> 100", "unit": "µM"}, {"measurement": "TGI", "setting": "[4]", "result": "> 100", "unit": "µM"}, {"measurement": "TGI", "setting": "[5]", "result": "> 100", "unit": "µM"}, {"measurement": "TGI", "setting": "[6]", "result": "> 100", "unit": "µM"}, {"measurement": "TGI", "setting": "[7]", "result": "> 100", "unit": "µM"}, {"measurement": "TGI", "setting": "[8]", "result": "> 100", "unit": "µM"}, {"measurement": "TGI", "setting": "[9]", "result": "> 100", "unit": "µM"}, {"measurement": "TGI", "setting": "[10]", "result": "> 100", "unit": "µM"}, {"measurement": "TGI", "setting": "[11]", "result": "> 100", "unit": "µM"}, {"measurement": "TGI", "setting": "[12]", "result": "> 100", "unit": "µM"}, {"measurement": "TGI", "setting": "[13]", "result": "> 100", "unit": "µM"}, {"measurement": "TGI", "setting": "[14]", "result": "> 100", "unit": "µM"}, {"measurement": "TGI", "setting": "[15]", "result": "> 100", "unit": "µM"}, {"measurement": "TGI", "setting": "[16]", "result": "> 100", "unit": "µM"}, {"measurement": "TGI", "setting": "[17]", "result": "> 100", "unit": "µM"}, {"measurement": "TGI", "setting": "[18]", "result": "> 100", "unit": "µM"}, {"measurement": "TGI", "setting": "[19]", "result": "> 100", "unit": "µM"}, {"measurement": "TGI", "setting": "[20]", "result": "> 100", "unit": "µM"}, {"measurement": "TGI", "setting": "[21]", "result": "> 100", "unit": "µM"}, {"measurement": "TGI", "setting": "[22]", "result": "> 100", "unit": "µM"}, {"measurement": "TGI", "setting": "[23]", "result": "> 100", "unit": "µM"}, {"measurement": "TGI", "setting": "[24]", "result": "> 100", "unit": "µM"}, {"measurement": "TGI", "setting": "[25]", "result": "> 100", "unit": "µM"}, {"measurement": "TGI", "setting": "[26]", "result": "> 100", "unit": "µM"}, {"measurement": "TGI", "setting": "[27]", "result": "> 100", "unit": "µM"}, {"measurement": "TGI", "setting": "[28]", "result": "> 100", "unit": "µM"}, {"measurement": "TGI", "setting": "[29]", "result": "> 100", "unit": "µM"}, {"measurement": "TGI", "setting": "[30]", "result": "> 100", "unit": "µM"}, {"measurement": "TGI", "setting": "[31]", "result": "> 100", "unit": "µM"}, {"measurement": "TGI", "setting": "[32]", "result": "> 100", "unit": "µM"}, {"measurement": "TGI", "setting": "[33]", "result": "> 100", "unit": "µM"}, {"measurement": "TGI", "setting": "[34]", "result": "> 100", "unit": "µM"}, {"measurement": "TGI", "setting": "[35]", "result": "> 100", "unit": "µM"}, {"measurement": "TGI", "setting": "[36]", "result": "> 100", "unit": "µM"}, {"measurement": "TGI", "setting": "[37]", "result": "> 100", "unit": "µM"}, {"measurement": "TGI", "setting": "[38]", "result": "> 100", "unit": "µM"}, {"measurement": "TGI", "setting": "[39]", "result": "> 100", "unit": "µM"}, {"measurement": "TGI", "setting": "[40]", "result": "> 100", "unit": "µM"}, {"measurement": "TGI", "setting": "[41]", "result": "> 100", "unit": "µM"}, {"measurement": "TGI", "setting": "[42]", "result": "> 100", "unit": "µM"}, {"measurement": "TGI", "setting": "[43]", "result": "> 100", "unit": "µM"}, {"measurement": "TGI", "setting": "[44]", "result": 40.4, "unit": "µM"}, {"measurement": "TGI", "setting": "[45]", "result": "> 100", "unit": "µM"}, {"measurement": "TGI", "setting": "[46]", "result": "> 100", "unit": "µM"}, {"measurement": "TGI", "setting": "[47]", "result": "> 100", "unit": "µM"}, {"measurement": "TGI", "setting": "[48]", "result": "> 100", "unit": "µM"}, {"measurement": "TGI", "setting": "[49]", "result": "> 100", "unit": "µM"}]}]}
